Laboratory results taken from ChEMBL document CHEMBL1201862, “PubChem BioAssay data set” (2004).
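These data come from cells grown in 96-well plates and exposed to compound for 48 hours at five concentrations. The concentration for 50% growth inhibition is given as GI50.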 Calls of active or inactive are those of the source. Rule as the data show it: active = GI50 up to about 1.1 µM and inactive = higher.

How the values were obtained:
Test in all cases: NCI tumour cell line growth inhibition, 48 h
A549 = test system: A549
CCRF-CEM = test system: CCRF-CEM
IGROV-1 = test system: IGROV-1
K562 = test system: K562
KM12 = test system: KM12
LOX IMVI = test system: LOX IMVI
NCI-H522 = test system: NCI-H522
OVCAR-8 = test system: OVCAR-8
RXF 393 = test system: RXF 393
SF-268 = test system: SF-268
SF-295 = test system: SF-295
SNB-75 = test system: SNB-75
SW-620 = test system: SW-620
TK-10 = test system: TK-10
UO-31 = test system: UO-31
M14 = test system: M14
NCI-H226 = test system: NCI-H226

SMILES | GI50 (A549) | GI50 (CCRF-CEM) | GI50 (IGROV-1) | GI50 (K562) | GI50 (KM12) | GI50 (LOX IMVI) | GI50 (NCI-H522) | GI50 (OVCAR-8) | GI50 (RXF 393) | GI50 (SF-268) | GI50 (SF-295) | GI50 (SNB-75) | GI50 (SW-620) | GI50 (TK-10) | GI50 (UO-31) | GI50 (M14) | GI50 (NCI-H226)
CC(=O)N[C@@H]1C(O)CN2C(=O)C(=O)O[C@H](C(O)CO)[C@@H]12 (some centres undefined) | > 100 µM (inactive) | > 100 µM (inactive) | > 100 µM (inactive) | > 100 µM (inactive) | > 100 µM (inactive) | > 100 µM (inactive) | > 100 µM (inactive) | > 100 µM (inactive) | > 100 µM (inactive) | > 100 µM (inactive) | > 100 µM (inactive) | > 100 µM (inactive) | > 100 µM (inactive) | > 100 µM (inactive) | > 100 µM (inactive) | – | –
Cc1ccc2c(c1)C1C(CO2)C(c2ccccc2)=NN1c1ccccc1 (centres undefined) | > 100 µM (inactive) | > 100 µM (inactive) | > 100 µM (inactive) | > 100 µM (inactive) | > 100 µM (inactive) | > 100 µM (inactive) | > 100 µM (inactive) | > 100 µM (inactive) | > 100 µM (inactive) | > 100 µM (inactive) | > 100 µM (inactive) | > 100 µM (inactive) | > 100 µM (inactive) | > 100 µM (inactive) | > 100 µM (inactive) | – | –
O=P(c1ccccc1)(c1ccccc1)C1CC=C(c2ccccc2)C2(CCCC2)C1 (centres undefined) | 40.3 µM (inactive) | 33.1 µM (inactive) | 42.7 µM (inactive) | 31.4 µM (inactive) | 40.4 µM (inactive) | 31.3 µM (inactive) | 8.79 µM (inactive) | 83.4 µM (inactive) | 9.23 µM (inactive) | 90.4 µM (inactive) | 72.3 µM (inactive) | 30.7 µM (inactive) | 81.3 µM (inactive) | 72.3 µM (inactive) | 25.3 µM (inactive) | 43.3 µM (inactive) | 44.9 µM (inactive)
O=c1ccc2ccccc2o1 [COUMARIN] | > 100 µM (inactive) | > 100 µM (inactive) | > 100 µM (inactive) | > 100 µM (inactive) | > 100 µM (inactive) | > 100 µM (inactive) | > 100 µM (inactive) | > 100 µM (inactive) | > 100 µM (inactive) | > 100 µM (inactive) | > 100 µM (inactive) | > 100 µM (inactive) | > 100 µM (inactive) | > 100 µM (inactive) | > 100 µM (inactive) | > 100 µM (inactive) | > 100 µM (inactive)
Cc1ccc(/C=C/C(=O)c2ccc([N+](=O)[O-])cc2)cc1 | > 100 µM (inactive) | > 100 µM (inactive) | > 100 µM (inactive) | > 100 µM (inactive) | > 100 µM (inactive) | > 100 µM (inactive) | 56.4 µM (inactive) | > 100 µM (inactive) | > 100 µM (inactive) | > 100 µM (inactive) | > 100 µM (inactive) | > 100 µM (inactive) | > 100 µM (inactive) | > 100 µM (inactive) | 59.4 µM (inactive) | > 100 µM (inactive) | > 100 µM (inactive)
COc1ccc(C(=O)C(C(=O)C(=O)NCCCNC(=O)C(=O)C(C(=O)c2ccc(OC)cc2)c2ccc(OC)cc2)c2ccc(OC)cc2)cc1 (centres undefined) | > 100 µM (inactive) | > 100 µM (inactive) | > 100 µM (inactive) | > 100 µM (inactive) | > 100 µM (inactive) | > 100 µM (inactive) | > 100 µM (inactive) | > 100 µM (inactive) | – | > 100 µM (inactive) | > 100 µM (inactive) | > 100 µM (inactive) | > 100 µM (inactive) | > 100 µM (inactive) | > 100 µM (inactive) | > 100 µM (inactive) | > 100 µM (inactive)
COC(=O)[C@]1(C)CCCC2(C)C1CC[C@H]1C=C(C)[C@H]3CCC12C3 (some centres undefined) | > 100 µM (inactive) | > 100 µM (inactive) | > 100 µM (inactive) | > 100 µM (inactive) | > 100 µM (inactive) | 68.2 µM (inactive) | 45 µM (inactive) | > 100 µM (inactive) | 55.3 µM (inactive) | > 100 µM (inactive) | > 100 µM (inactive) | > 100 µM (inactive) | > 100 µM (inactive) | > 100 µM (inactive) | > 100 µM (inactive) | > 100 µM (inactive) | > 100 µM (inactive)
CC(=O)Nc1ccc(-c2nnc(SCC(=O)Nc3ccccc3)o2)cc1 | > 100 µM (inactive) | 59.4 µM (inactive) | 47.6 µM (inactive) | > 100 µM (inactive) | 65 µM (inactive) | 33.5 µM (inactive) | 60.3 µM (inactive) | > 100 µM (inactive) | 89.9 µM (inactive) | > 100 µM (inactive) | 77.6 µM (inactive) | > 100 µM (inactive) | > 100 µM (inactive) | > 100 µM (inactive) | 79.6 µM (inactive) | 86.3 µM (inactive) | 82.4 µM (inactive)
[O-]c1on[n+]2c1c(Nc1ccc(Cl)cc1)nc1ccccc12 | > 100 µM (inactive) | > 100 µM (inactive) | > 100 µM (inactive) | > 100 µM (inactive) | > 100 µM (inactive) | > 100 µM (inactive) | > 100 µM (inactive) | > 100 µM (inactive) | > 100 µM (inactive) | > 100 µM (inactive) | > 100 µM (inactive) | 85.1 µM (inactive) | > 100 µM (inactive) | > 100 µM (inactive) | > 100 µM (inactive) | > 100 µM (inactive) | –
CCOC(=O)C1S/C(=N\c2ccc(C)c(C)c2)N=C1C (centres undefined) | > 100 µM (inactive) | > 100 µM (inactive) | > 100 µM (inactive) | 59.3 µM (inactive) | > 100 µM (inactive) | 75.2 µM (inactive) | > 100 µM (inactive) | > 100 µM (inactive) | – | > 100 µM (inactive) | > 100 µM (inactive) | 66.8 µM (inactive) | > 100 µM (inactive) | > 100 µM (inactive) | > 100 µM (inactive) | > 100 µM (inactive) | > 100 µM (inactive)
C/C=C1/C(=Cc2[nH]c(C=c3[nH]/c(=C/C4=NC(=O)C(CC)=C4C)c(C)c3CCC(=O)O)c(CCC(=O)O)c2C)NC(=O)C1C (centres undefined) | 10.5 µM (inactive) | 2.1 µM (inactive) | 3.38 µM (inactive) | 2.21 µM (inactive) | 10.8 µM (inactive) | 1.04 µM (active) | 6.19 µM (inactive) | 4.13 µM (inactive) | > 50 µM (inactive) | 7.89 µM (inactive) | 6.65 µM (inactive) | 4.79 µM (inactive) | 2.96 µM (inactive) | > 50 µM (inactive) | 8.24 µM (inactive) | 1.87 µM (inactive) | 2.59 µM (inactive)
COC(=O)C1=C(C(=O)OC)SC(=C(/N=N/c2ccccc2)c2ccccc2)S1 | > 100 µM (inactive) | > 100 µM (inactive) | > 100 µM (inactive) | > 100 µM (inactive) | > 100 µM (inactive) | > 100 µM (inactive) | 83.6 µM (inactive) | > 100 µM (inactive) | – | > 100 µM (inactive) | > 100 µM (inactive) | > 100 µM (inactive) | > 100 µM (inactive) | > 100 µM (inactive) | > 100 µM (inactive) | 45.8 µM (inactive) | > 100 µM (inactive)
CCOC(=O)Nc1ccc(S(=O)(=O)OC)cc1.CCOC(=O)Nc1ccc(S(=O)(=O)OC)cc1.NC(=O)NCCO | > 50 µM (inactive) | 23.3 µM (inactive) | > 50 µM (inactive) | 16.1 µM (inactive) | > 50 µM (inactive) | 21.3 µM (inactive) | > 50 µM (inactive) | 42.3 µM (inactive) | > 50 µM (inactive) | > 50 µM (inactive) | > 50 µM (inactive) | > 50 µM (inactive) | 28.8 µM (inactive) | 48 µM (inactive) | > 50 µM (inactive) | 42.4 µM (inactive) | > 50 µM (inactive)
CCOC(=O)/C(C#N)=C(N)/C(=N\Nc1cccc(C(F)(F)F)c1)C(=O)OCC | > 100 µM (inactive) | > 100 µM (inactive) | > 100 µM (inactive) | – | – | > 100 µM (inactive) | > 100 µM (inactive) | > 100 µM (inactive) | – | > 100 µM (inactive) | > 100 µM (inactive) | > 100 µM (inactive) | > 100 µM (inactive) | > 100 µM (inactive) | > 100 µM (inactive) | > 100 µM (inactive) | > 100 µM (inactive)
O=C1c2cccc3c2C(=O)c2c(cccc21)OCCOCCOCCOCCO3 | > 100 µM (inactive) | 47.2 µM (inactive) | > 100 µM (inactive) | 61.4 µM (inactive) | – | 78.2 µM (inactive) | > 100 µM (inactive) | > 100 µM (inactive) | 78.2 µM (inactive) | > 100 µM (inactive) | > 100 µM (inactive) | 40.9 µM (inactive) | > 100 µM (inactive) | > 100 µM (inactive) | 30.9 µM (inactive) | > 100 µM (inactive) | 34.2 µM (inactive)
Cc1nc(-n2nc(-c3ccccc3)cc2-c2ccccc2)sc1C(=O)/C=C/c1ccc(Cl)c(Cl)c1 | 25.6 µM (inactive) | 16.9 µM (inactive) | 12.1 µM (inactive) | 15.8 µM (inactive) | 8.67 µM (inactive) | 13.1 µM (inactive) | 10 µM (inactive) | 14.1 µM (inactive) | 28.1 µM (inactive) | 33.1 µM (inactive) | 16.7 µM (inactive) | – | 21.5 µM (inactive) | 43.2 µM (inactive) | 10.6 µM (inactive) | 17.6 µM (inactive) | 15.3 µM (inactive)
COC(=O)C1CC2(c3ccccc3)C(=O)c3ccccc3N2O1 (centres undefined) | > 100 µM (inactive) | 30.3 µM (inactive) | > 100 µM (inactive) | 31.8 µM (inactive) | 72.4 µM (inactive) | 26.1 µM (inactive) | 15.5 µM (inactive) | 41.9 µM (inactive) | – | > 100 µM (inactive) | > 100 µM (inactive) | 40.5 µM (inactive) | 39.3 µM (inactive) | > 100 µM (inactive) | – | > 100 µM (inactive) | > 100 µM (inactive)
